In ChEMBL document CHEMBL2040848, “Synthesis and bioactivity evaluation of rhodanine derivatives as potential anti-bacterial agents” (2012) one finds MIC data, which are given here for 18 compounds.

A word on the MIC: it is the least concentration at which growth counts as inhibited.

Molecules are shown by their SMILES. Converted amounts (≈) assume the structure as drawn. Where only a bound is given, the exact number is not on record here.

What all share (type): functional
The test system of experiment [1] is Staphylococcus aureus. Put plainly: Antibacterial activity against Staphylococcus aureus KCTC 503 after 24 hrs by two-fold serial dilution method. To be noted: KCTC 503, 24 h.
Experiment [2] concerns Staphylococcus aureus. The experiment is described as follows: Antibacterial activity against Staphylococcus aureus KCTC 209 after 24 hrs by two-fold serial dilution method. The settings on record: KCTC 209, 24 h.
In experiment [3] the test system is Staphylococcus aureus. Put plainly: Antibacterial activity against quinolone-resistant Staphylococcus aureus CCARM 3519 after 24 hrs by two-fold serial dilution method. The settings on record: CCARM 3519, 24 h.
For experiment [4], the system named is Staphylococcus aureus. Put plainly: Antibacterial activity against Staphylococcus aureus KCTC 4220 after 24 hrs by two-fold serial dilution method. To be noted: KCTC 4220, 24 h.
In experiment [5] the test system is Staphylococcus aureus. Put plainly: Antibacterial activity against methicillin-resistant Staphylococcus aureus CCARM 3506 after 24 hrs by two-fold serial dilution method. The settings on record: CCARM 3506, 24 h.
For experiment [6], the system named is Staphylococcus aureus. The experiment is described as follows: Antibacterial activity against quinolone-resistant Staphylococcus aureus CCARM 3505 after 24 hrs by two-fold serial dilution method. The settings on record: CCARM 3505, 24 h.
The test system of the next experiment is Escherichia coli. The experiment is described as follows: Antibacterial activity against Escherichia coli 1356 after 24 hrs by two-fold serial dilution method. The settings on record: Escherichia coli, 1356, 24 h.
Experiment [7] has as its system Staphylococcus aureus. Put plainly: Antibacterial activity against methicillin-resistant Staphylococcus aureus CCARM 3167 after 24 hrs by two-fold serial dilution method. To be noted: CCARM 3167, 24 h.

`O=C(COc1ccc(/C=C2\SC(=S)N([C@@H](Cc3c[nH]c4ccccc34)C(=O)O)C2=O)cc1)c1cccc(Br)c1`: the MIC against Staphylococcus aureus [1] was 4 µg/mL (≈ 6.44 µM); in the experiment with Staphylococcus aureus [2], 2 µg/mL (≈ 3.22 µM); in the experiment on Staphylococcus aureus [3], 4 µg/mL (≈ 6.44 µM); with Staphylococcus aureus [4] it was 4 µg/mL (≈ 6.44 µM); against Staphylococcus aureus [5] it was 4 µg/mL (≈ 6.44 µM); against Staphylococcus aureus [6], 4 µg/mL (≈ 6.44 µM). Further, the MIC with Escherichia coli was > 64 µg/mL; in the experiment on Staphylococcus aureus [7], 4 µg/mL (≈ 6.44 µM).
`O=C(COc1ccc(/C=C2\SC(=S)N([C@@H](Cc3c[nH]c4ccccc34)C(=O)O)C2=O)cc1)c1ccccc1F`: the minimal inhibitory concentration (MIC) against Staphylococcus aureus [1], against Staphylococcus aureus [2], in the experiment on Staphylococcus aureus [3], against Staphylococcus aureus [4], in the experiment on Staphylococcus aureus [5] and in the experiment on Staphylococcus aureus [6] was 8 µg/mL (≈ 14.3 µM) throughout. Further, the MIC in the experiment on Escherichia coli was > 64 µg/mL; with Staphylococcus aureus [7] it was 8 µg/mL (≈ 14.3 µM).
For `O=C(COc1ccc(/C=C2\SC(=S)N([C@@H](Cc3ccccc3)C(=O)O)C2=O)cc1)c1ccccc1`, the MIC came out at 8 µg/mL (≈ 15.9 µM) in the experiment with Staphylococcus aureus [1]; 4 µg/mL (≈ 7.94 µM) in the experiment with Staphylococcus aureus [2]; 4 µg/mL (≈ 7.94 µM) against Staphylococcus aureus [3]; 8 µg/mL (≈ 15.9 µM) with Staphylococcus aureus [4]; 4 µg/mL (≈ 7.94 µM) against Staphylococcus aureus [5]; 8 µg/mL (≈ 15.9 µM) in the experiment with Staphylococcus aureus [6]. Besides, the MIC in the experiment with Escherichia coli was > 64 µg/mL; in the experiment on Staphylococcus aureus [7], 8 µg/mL (≈ 15.9 µM).
For the compound `O=C(COc1ccc(/C=C2\SC(=S)N([C@@H](Cc3c[nH]c4ccccc34)C(=O)O)C2=O)cc1)c1ccc(F)cc1`, the MIC against Staphylococcus aureus [1], in the experiment on Staphylococcus aureus [2], against Staphylococcus aureus [3], with Staphylococcus aureus [4], against Staphylococcus aureus [5] and against Staphylococcus aureus [6] was 4 µg/mL (≈ 7.13 µM) in each case. Moreover, the MIC in the experiment on Escherichia coli is > 64 µg/mL; against Staphylococcus aureus [7], 4 µg/mL (≈ 7.13 µM).
As to `O=C(COc1ccc(/C=C2\SC(=S)N([C@@H](Cc3ccc(O)cc3)C(=O)O)C2=O)cc1)c1cccc(Br)c1`, the MIC in the experiment with Staphylococcus aureus [1], in the experiment with Staphylococcus aureus [2], against Staphylococcus aureus [3], against Staphylococcus aureus [4], with Staphylococcus aureus [5] and in the experiment on Staphylococcus aureus [6] was 8 µg/mL (≈ 13.4 µM) throughout. Moreover, the values for the MIC against Escherichia coli and in the experiment with Staphylococcus aureus [7] were > 64 µg/mL and 8 µg/mL (≈ 13.4 µM), respectively.
For the compound `Cc1ccc(C(=O)COc2ccc(/C=C3\SC(=S)N([C@@H](Cc4ccc(O)cc4)C(=O)O)C3=O)cc2)cc1`, the MIC was 8 µg/mL (≈ 15 µM) against Staphylococcus aureus [1]; 4 µg/mL (≈ 7.5 µM) against Staphylococcus aureus [2]; 16 µg/mL (≈ 30 µM) against Staphylococcus aureus [3]; 32 µg/mL (≈ 60 µM) in the experiment on Staphylococcus aureus [4]; 16 µg/mL (≈ 30 µM) against Staphylococcus aureus [5]; 16 µg/mL (≈ 30 µM) in the experiment with Staphylococcus aureus [6]. Moreover, the figures for the MIC in the experiment on Escherichia coli and in the experiment with Staphylococcus aureus [7] were > 64 µg/mL and 16 µg/mL (≈ 30 µM), respectively.
Regarding `COc1cccc(C(=O)COc2ccc(/C=C3\SC(=S)N([C@@H](Cc4c[nH]c5ccccc45)C(=O)O)C3=O)cc2)c1`, the MIC in the experiment on Staphylococcus aureus [1], with Staphylococcus aureus [2], against Staphylococcus aureus [3], with Staphylococcus aureus [4], with Staphylococcus aureus [5] and against Staphylococcus aureus [6] was 8 µg/mL (≈ 14 µM) throughout. The MIC against Escherichia coli was > 64 µg/mL; in the experiment on Staphylococcus aureus [7], 8 µg/mL (≈ 14 µM).
On to `O=C(COc1ccc(/C=C2\SC(=S)N([C@@H](Cc3c[nH]c4ccccc34)C(=O)O)C2=O)cc1)c1ccc(Cl)cc1Cl`, for which the minimal inhibitory concentration (MIC) amounted to 8 µg/mL (≈ 13.1 µM) against Staphylococcus aureus [1]; 4 µg/mL (≈ 6.54 µM) against Staphylococcus aureus [2]; 8 µg/mL (≈ 13.1 µM) against Staphylococcus aureus [3]; 8 µg/mL (≈ 13.1 µM) against Staphylococcus aureus [4]; 8 µg/mL (≈ 13.1 µM) in the experiment with Staphylococcus aureus [5]; 4 µg/mL (≈ 6.54 µM) in the experiment with Staphylococcus aureus [6]. Moreover, the MIC is > 64 µg/mL against Escherichia coli and 4 µg/mL (≈ 6.54 µM) against Staphylococcus aureus [7].
Regarding `O=C(COc1ccc(/C=C2\SC(=S)N([C@@H](Cc3ccc(O)cc3)C(=O)O)C2=O)cc1)c1ccc(Br)cc1`, the MIC with Staphylococcus aureus [1] came to 4 µg/mL (≈ 6.68 µM); in the experiment on Staphylococcus aureus [2], 4 µg/mL (≈ 6.68 µM); with Staphylococcus aureus [3], 8 µg/mL (≈ 13.4 µM); in the experiment with Staphylococcus aureus [4] it was 8 µg/mL (≈ 13.4 µM); in the experiment on Staphylococcus aureus [5] it was 8 µg/mL (≈ 13.4 µM); against Staphylococcus aureus [6], 8 µg/mL (≈ 13.4 µM). Further, the values for the MIC against Escherichia coli and in the experiment with Staphylococcus aureus [7] were > 64 µg/mL and 8 µg/mL (≈ 13.4 µM), respectively.
For the compound `CCn1cc(C(=O)O)c(=O)c2cc(F)c(N3CCNCC3)cc21` [NORFLOXACIN], the MIC in the experiment on Staphylococcus aureus [1] is 2 µg/mL (≈ 6.26 µM); in the experiment on Staphylococcus aureus [2], 2 µg/mL (≈ 6.26 µM); against Staphylococcus aureus [3], > 64 µg/mL; against Staphylococcus aureus [4] it was 2 µg/mL (≈ 6.26 µM); in the experiment on Staphylococcus aureus [5], 4 µg/mL (≈ 12.5 µM); with Staphylococcus aureus [6], > 64 µg/mL. Also, the MIC in the experiment on Escherichia coli stood at 16 µg/mL (≈ 50.1 µM); against Staphylococcus aureus [7], 8 µg/mL (≈ 25.1 µM).
Consider `O=C(COc1ccc(/C=C2\SC(=S)N([C@@H](Cc3ccccc3)C(=O)O)C2=O)cc1)c1ccccc1Br`, for which the MIC is 8 µg/mL (≈ 13.7 µM) against Staphylococcus aureus [1]; 4 µg/mL (≈ 6.87 µM) in the experiment with Staphylococcus aureus [2]; 8 µg/mL (≈ 13.7 µM) with Staphylococcus aureus [3]; 8 µg/mL (≈ 13.7 µM) in the experiment on Staphylococcus aureus [4]; 8 µg/mL (≈ 13.7 µM) against Staphylococcus aureus [5]; 4 µg/mL (≈ 6.87 µM) in the experiment on Staphylococcus aureus [6]. The MIC in the experiment on Escherichia coli is > 64 µg/mL; in the experiment with Staphylococcus aureus [7] it was 4 µg/mL (≈ 6.87 µM).
As for `O=C(O)CN1C(=O)C(=Cc2ccc(/C=C/C(=O)c3ccc(Cl)cc3Cl)cc2)SC1=S`, the MIC in the experiment on Staphylococcus aureus [1], in the experiment with Staphylococcus aureus [2], in the experiment on Staphylococcus aureus [3], in the experiment with Staphylococcus aureus [4], in the experiment with Staphylococcus aureus [5] and against Staphylococcus aureus [6] was 2 µg/mL (≈ 4.18 µM) throughout. The results for the MIC against Escherichia coli and with Staphylococcus aureus [7] were > 64 µg/mL and 2 µg/mL (≈ 4.18 µM), respectively.
For the compound `Cc1ccc(C(=O)COc2ccc(/C=C3\SC(=S)N([C@@H](Cc4c[nH]c5ccccc45)C(=O)O)C3=O)cc2)cc1`, the MIC with Staphylococcus aureus [1] amounted to 4 µg/mL (≈ 7.19 µM); with Staphylococcus aureus [2] it was 4 µg/mL (≈ 7.19 µM); against Staphylococcus aureus [3], 8 µg/mL (≈ 14.4 µM); against Staphylococcus aureus [4] it was 8 µg/mL (≈ 14.4 µM); against Staphylococcus aureus [5], 8 µg/mL (≈ 14.4 µM); in the experiment with Staphylococcus aureus [6], 4 µg/mL (≈ 7.19 µM). Besides, the values for the MIC with Escherichia coli and in the experiment with Staphylococcus aureus [7] were > 64 µg/mL and 4 µg/mL (≈ 7.19 µM), respectively.
Regarding `COc1cccc(C(=O)COc2ccc(/C=C3\SC(=S)N([C@@H](Cc4ccccc4)C(=O)O)C3=O)cc2)c1`, the MIC in the experiment with Staphylococcus aureus [1], in the experiment with Staphylococcus aureus [2], with Staphylococcus aureus [3], in the experiment with Staphylococcus aureus [4], against Staphylococcus aureus [5] and against Staphylococcus aureus [6] was 8 µg/mL (≈ 15 µM) each time. Besides, the MIC is > 64 µg/mL with Escherichia coli and 8 µg/mL (≈ 15 µM) in the experiment on Staphylococcus aureus [7].
As to `O=C(COc1ccc(/C=C2\SC(=S)N([C@@H](Cc3c[nH]c4ccccc34)C(=O)O)C2=O)cc1)c1ccccc1Br`, the MIC in the experiment on Staphylococcus aureus [1] came to 4 µg/mL (≈ 6.44 µM); against Staphylococcus aureus [2] it was 4 µg/mL (≈ 6.44 µM); against Staphylococcus aureus [3], 8 µg/mL (≈ 12.9 µM); in the experiment with Staphylococcus aureus [4] it was 8 µg/mL (≈ 12.9 µM); with Staphylococcus aureus [5] it was 8 µg/mL (≈ 12.9 µM); in the experiment with Staphylococcus aureus [6] it was 4 µg/mL (≈ 6.44 µM). In addition, the MIC in the experiment on Escherichia coli was > 64 µg/mL; in the experiment on Staphylococcus aureus [7], 4 µg/mL (≈ 6.44 µM).
In the case of `Cc1ccc(C(=O)COc2ccc(/C=C3\SC(=S)N([C@@H](Cc4ccccc4)C(=O)O)C3=O)cc2)cc1`, the MIC in the experiment on Staphylococcus aureus [1] was 8 µg/mL (≈ 15.5 µM); in the experiment with Staphylococcus aureus [2], 8 µg/mL (≈ 15.5 µM); in the experiment on Staphylococcus aureus [3], 8 µg/mL (≈ 15.5 µM); against Staphylococcus aureus [4], 8 µg/mL (≈ 15.5 µM); in the experiment on Staphylococcus aureus [5] it was 8 µg/mL (≈ 15.5 µM); in the experiment on Staphylococcus aureus [6] it was 4 µg/mL (≈ 7.73 µM). Besides, the MIC against Escherichia coli was > 64 µg/mL; in the experiment on Staphylococcus aureus [7] it was 4 µg/mL (≈ 7.73 µM).
Take `O=C(COc1ccc(/C=C2\SC(=S)N([C@@H](Cc3c[nH]c4ccccc34)C(=O)O)C2=O)cc1)c1ccc(Br)cc1`: the MIC is 4 µg/mL (≈ 6.44 µM) in the experiment with Staphylococcus aureus [1]; 4 µg/mL (≈ 6.44 µM) against Staphylococcus aureus [2]; 8 µg/mL (≈ 12.9 µM) in the experiment with Staphylococcus aureus [3]; 8 µg/mL (≈ 12.9 µM) in the experiment with Staphylococcus aureus [4]; 8 µg/mL (≈ 12.9 µM) against Staphylococcus aureus [5]; 8 µg/mL (≈ 12.9 µM) against Staphylococcus aureus [6]. Besides, the figures for the MIC against Escherichia coli and in the experiment on Staphylococcus aureus [7] were > 64 µg/mL and 8 µg/mL (≈ 12.9 µM), respectively.
`COc1cccc(C(=O)COc2ccc(/C=C3\SC(=S)N([C@@H](Cc4ccc(O)cc4)C(=O)O)C3=O)cc2)c1`: the MIC worked out at 8 µg/mL (≈ 14.6 µM) in the experiment with Staphylococcus aureus [1]; 8 µg/mL (≈ 14.6 µM) in the experiment on Staphylococcus aureus [2]; 16 µg/mL (≈ 29.1 µM) in the experiment on Staphylococcus aureus [3]; 32 µg/mL (≈ 58.2 µM) with Staphylococcus aureus [4]; 16 µg/mL (≈ 29.1 µM) in the experiment on Staphylococcus aureus [5]; 8 µg/mL (≈ 14.6 µM) against Staphylococcus aureus [6]. The values for the MIC against Escherichia coli and with Staphylococcus aureus [7] were > 64 µg/mL and 8 µg/mL (≈ 14.6 µM), respectively.
